In the NIST ThermoML archive (doi:10.1021/je300945r):
Numbers after ± are expanded uncertainties.

F/C=C/C(F)(F)F [trans-1,3,3,3-tetrafluoropropene]
Settings | mass density [kg/m3]
323.14 K, 8751 kPa, Liquid, Vibrating tube method | 1126.4 ± 1.6
323.14 K, 9772 kPa, Liquid, Vibrating tube method | 1131.9 ± 1.6
323.14 K, 12808 kPa, Liquid, Vibrating tube method | 1147.2 ± 1.6
323.14 K, 13808 kPa, Liquid, Vibrating tube method | 1151.8 ± 1.6
323.14 K, 14826 kPa, Liquid, Vibrating tube method | 1156.4 ± 1.6
323.14 K, 15836 kPa, Liquid, Vibrating tube method | 1160.8 ± 1.6
323.14 K, 16839 kPa, Liquid, Vibrating tube method | 1165 ± 1.6
323.14 K, 17853 kPa, Liquid, Vibrating tube method | 1169.1 ± 1.6
323.14 K, 18870 kPa, Liquid, Vibrating tube method | 1173.1 ± 1.6
323.14 K, 19877 kPa, Liquid, Vibrating tube method | 1177 ± 1.6
323.14 K, 20888 kPa, Liquid, Vibrating tube method | 1180.8 ± 1.6
323.14 K, 25937 kPa, Liquid, Vibrating tube method | 1198.3 ± 1.7
323.14 K, 26941 kPa, Liquid, Vibrating tube method | 1201.5 ± 1.7
323.14 K, 29967 kPa, Liquid, Vibrating tube method | 1210.9 ± 1.7
323.15 K, 10784 kPa, Liquid, Vibrating tube method | 1137.3 ± 1.6
323.15 K, 11798 kPa, Liquid, Vibrating tube method | 1142.3 ± 1.6
323.15 K, 21901 kPa, Liquid, Vibrating tube method | 1184.5 ± 1.6
323.15 K, 22914 kPa, Liquid, Vibrating tube method | 1188 ± 1.6
323.15 K, 23918 kPa, Liquid, Vibrating tube method | 1191.5 ± 1.6
323.15 K, 24922 kPa, Liquid, Vibrating tube method | 1194.9 ± 1.7
323.15 K, 27947 kPa, Liquid, Vibrating tube method | 1204.7 ± 1.7
323.15 K, 28950 kPa, Liquid, Vibrating tube method | 1207.8 ± 1.7
323.15 K, 30984 kPa, Liquid, Vibrating tube method | 1213.9 ± 1.7
323.15 K, 31990 kPa, Liquid, Vibrating tube method | 1216.9 ± 1.7
323.15 K, 33002 kPa, Liquid, Vibrating tube method | 1219.7 ± 1.7
323.15 K, 34015 kPa, Liquid, Vibrating tube method | 1222.6 ± 1.7
324.12 K, 770.9 kPa, Gas, isochoric method | 38.462 ± 0.13
324.12 K, 771 kPa, Gas, isochoric method | 38.462 ± 0.13
325.11 K, 605.5 kPa, Gas, isochoric method | 28.571 ± 0.11
333.07 K, 79.2 kPa, Gas, isochoric method | 3.311 ± 0.086
333.07 K, 288 kPa, Gas, isochoric method | 12.346 ± 0.095
333.07 K, 488.2 kPa, Gas, isochoric method | 21.739 ± 0.097
333.08 K, 180.4 kPa, Gas, isochoric method | 7.634 ± 0.087
333.09 K, 428.5 kPa, Gas, isochoric method | 19.231 ± 0.095
333.09 K, 624.8 kPa, Gas, isochoric method | 28.571 ± 0.11
333.09 K, 685.9 kPa, Gas, isochoric method | 32.258 ± 0.11
333.09 K, 801.3 kPa, Gas, isochoric method | 38.462 ± 0.12
333.09 K, 801.4 kPa, Gas, isochoric method | 38.462 ± 0.12
333.09 K, 875.5 kPa, Gas, isochoric method | 43.478 ± 0.14
333.1 K, 875.5 kPa, Gas, isochoric method | 43.478 ± 0.14
333.15 K, 10813 kPa, Liquid, Vibrating tube method | 1108.1 ± 1.6
333.15 K, 15858 kPa, Liquid, Vibrating tube method | 1134.8 ± 1.6
333.15 K, 17873 kPa, Liquid, Vibrating tube method | 1144.2 ± 1.6
333.15 K, 18876 kPa, Liquid, Vibrating tube method | 1148.5 ± 1.6
333.15 K, 19891 kPa, Liquid, Vibrating tube method | 1152.9 ± 1.6
333.15 K, 20898 kPa, Liquid, Vibrating tube method | 1157 ± 1.6
333.15 K, 21900 kPa, Liquid, Vibrating tube method | 1161 ± 1.6
333.15 K, 22913 kPa, Liquid, Vibrating tube method | 1165 ± 1.6
333.15 K, 23923 kPa, Liquid, Vibrating tube method | 1168.8 ± 1.6
333.15 K, 24932 kPa, Liquid, Vibrating tube method | 1172.5 ± 1.6
333.15 K, 25940 kPa, Liquid, Vibrating tube method | 1176.1 ± 1.6
333.15 K, 26944 kPa, Liquid, Vibrating tube method | 1179.7 ± 1.6
333.15 K, 27958 kPa, Liquid, Vibrating tube method | 1183 ± 1.7
333.15 K, 28967 kPa, Liquid, Vibrating tube method | 1186.4 ± 1.7
333.15 K, 29982 kPa, Liquid, Vibrating tube method | 1189.8 ± 1.7
333.15 K, 30988 kPa, Liquid, Vibrating tube method | 1193 ± 1.7
333.15 K, 31995 kPa, Liquid, Vibrating tube method | 1196.1 ± 1.7
333.15 K, 33006 kPa, Liquid, Vibrating tube method | 1199.3 ± 1.7
333.15 K, 34013 kPa, Liquid, Vibrating tube method | 1202.3 ± 1.7
333.16 K, 1380 kPa, Liquid, Vibrating tube method | 1031.7 ± 1.7
333.16 K, 1683 kPa, Liquid, Vibrating tube method | 1035.2 ± 1.7
333.16 K, 2698 kPa, Liquid, Vibrating tube method | 1046.3 ± 1.7
333.16 K, 3721 kPa, Liquid, Vibrating tube method | 1056.4 ± 1.7
333.16 K, 4755 kPa, Liquid, Vibrating tube method | 1065.6 ± 1.6
333.16 K, 5766 kPa, Liquid, Vibrating tube method | 1073.9 ± 1.6
333.16 K, 6767 kPa, Liquid, Vibrating tube method | 1081.5 ± 1.6
333.16 K, 7784 kPa, Liquid, Vibrating tube method | 1088.8 ± 1.6
333.16 K, 8801 kPa, Liquid, Vibrating tube method | 1095.7 ± 1.6
333.16 K, 9801 kPa, Liquid, Vibrating tube method | 1102 ± 1.6
333.16 K, 11831 kPa, Liquid, Vibrating tube method | 1114 ± 1.6
333.16 K, 12847 kPa, Liquid, Vibrating tube method | 1119.5 ± 1.6
333.16 K, 13849 kPa, Liquid, Vibrating tube method | 1124.8 ± 1.6
333.16 K, 14855 kPa, Liquid, Vibrating tube method | 1129.9 ± 1.6
333.16 K, 16870 kPa, Liquid, Vibrating tube method | 1139.6 ± 1.6
343.03 K, 81.6 kPa, Gas, isochoric method | 3.3 ± 0.084
343.03 K, 297.5 kPa, Gas, isochoric method | 12.346 ± 0.091
343.04 K, 81.7 kPa, Gas, isochoric method | 3.3 ± 0.084
343.04 K, 186.1 kPa, Gas, isochoric method | 7.634 ± 0.085
343.04 K, 505.6 kPa, Gas, isochoric method | 21.739 ± 0.093
343.04 K, 648.5 kPa, Gas, isochoric method | 28.571 ± 0.1
343.05 K, 443.5 kPa, Gas, isochoric method | 19.231 ± 0.092
343.06 K, 713 kPa, Gas, isochoric method | 32.258 ± 0.11
343.06 K, 713.1 kPa, Gas, isochoric method | 32.258 ± 0.11
343.06 K, 913.4 kPa, Gas, isochoric method | 43.478 ± 0.13
343.06 K, 913.5 kPa, Gas, isochoric method | 43.478 ± 0.13
343.15 K, 834.9 kPa, Gas, isochoric method | 38.462 ± 0.11
343.15 K, 835 kPa, Gas, isochoric method | 38.462 ± 0.11
343.15 K, 1625 kPa, Liquid, Vibrating tube method | 984.2 ± 1.7
343.15 K, 2607 kPa, Liquid, Vibrating tube method | 999.1 ± 1.7
343.15 K, 3648 kPa, Liquid, Vibrating tube method | 1012.8 ± 1.7
343.15 K, 4690 kPa, Liquid, Vibrating tube method | 1024.7 ± 1.7
343.15 K, 5696 kPa, Liquid, Vibrating tube method | 1035.1 ± 1.7
343.15 K, 6697 kPa, Liquid, Vibrating tube method | 1044.5 ± 1.6
343.15 K, 7717 kPa, Liquid, Vibrating tube method | 1053.2 ± 1.6
343.15 K, 8731 kPa, Liquid, Vibrating tube method | 1061.4 ± 1.6
